# Assay results published in patent US10300048B2, “Thiazolidinones as cellular anandamide uptake inhibitors and their use in the treatment of psychiatric or neurological disorders and inflammation, in particular neuroinflammation” (UNIVERSITAT BERN, priority 2014, dated 2019).
# Target: hCB1 receptor (Homo sapiens (Human), UniProt P21554)
# Test: Radioligand CB receptor binding, [3H]-CP55,940 displacement on CHO-K1 hCB1 membranes
# Settings: Table 3
# Description: Stably transfected CHO-K1 cells expressing hCB1 or hCB2 receptors (Gertsch et al., 2008, Proc Natl Acad Sci 105, 9099-104) were cultured in T150 cm^2 flasks up to 90% confluence. The medium was removed and cells were washed twice with PBS, 37° C. 10 mL of PBS was added and the cells were scraped and transferred into a falcon tube following homogenization by a Polytron PT1300D for 5 min at 30 krpm. Then, the homogenate was centrifuged (1400×g, 5 min) to remove debris. The supernatant was subjected to ultracentrifugation (64000×g, 45 min, 4° C.) to separate cytosolic from the membrane fraction. The supernatant was discharged and the pellet resuspended in PBS by sonication. Protein quantity was determined by BCA assay (Thermo Scientific) and aliquots of 500 μL were stored at −80° C. until use.
# Radioligand CB Receptor Binding
# Binding properties of ETI-T compounds to hCB1 or hCB2 receptors were performed as previously reported in a [^3H]-CP55,940 displacement assay (Gertsch et al., 2008, Proc Natl Acad Sci 105, 9099-104). WIN 55,212-2 was used as positive control. In brief, 20 μg protein of CHO-K1 hCB1 or hCB2 membrane preparations were thawed on ice and resuspended in a final volume of 500 μL binding buffer (50 mM Tris-HCl, 2.5 mM EDTA, 5 mM MgCl2, 0.5% fatty acid free BSA, pH 7.4) in silanized glass vials. [^3H]-CP55,940 (168 Ci/mmol) (PerkinElmer, Waltham, Mass., US) was added to a final concentration of 0.5 nM followed by the addition of competitors or vehicle in 5 μL DMSO. Membrane binding was equilibrated for 2 h at room temperature (25° C.). Samples were filter through a 0.1% polyethylenimine pre-soaked UniFilter®-96 GF/B plate (PerkinElmer) and washed twelve times with 167 μL ice-cold assay-buffer. The plate was dried, bottom sealed and 45 μL MicroScint 20 scintillation cocktail (PerkinElmer) were added before measured on a PerkinElmer 1450 Microbeta TRILUX liquid scintillation counter. Unspecific binding was determined by WIN 55,212-2, 10 μM and subtracted from all values. […].
# Sequence of hCB1 receptor (P21554 whole entry): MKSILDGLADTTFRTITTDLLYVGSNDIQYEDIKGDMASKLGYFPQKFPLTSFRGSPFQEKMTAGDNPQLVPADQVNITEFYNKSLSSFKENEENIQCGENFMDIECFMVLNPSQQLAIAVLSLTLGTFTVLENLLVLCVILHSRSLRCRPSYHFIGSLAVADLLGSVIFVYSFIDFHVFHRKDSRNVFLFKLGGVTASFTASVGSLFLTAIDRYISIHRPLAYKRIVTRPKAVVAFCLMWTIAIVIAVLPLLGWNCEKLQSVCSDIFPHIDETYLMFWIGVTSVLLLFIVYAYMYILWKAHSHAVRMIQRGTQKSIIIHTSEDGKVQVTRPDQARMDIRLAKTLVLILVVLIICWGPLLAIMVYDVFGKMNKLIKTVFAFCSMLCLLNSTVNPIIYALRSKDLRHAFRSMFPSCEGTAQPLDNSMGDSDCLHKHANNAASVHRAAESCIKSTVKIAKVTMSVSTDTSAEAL
row,Compound,CB1 receptor binding % binding at 10 μM [%]
1,CCOc1cc(/C=C2\S/C(=N\c3ccc(F)cc3)N(c3ccc(F)cc3)C2=O)ccc1O [Compound 2],33
2,C=CCc1cc(/C=C2\S/C(=N\c3ccc(C(=O)OC)cc3)N(C)C2=O)cc(OCC)c1O [Compound 16],15
3,CCOc1cc(/C=C2\S/C(=N\c3ccc(C)cc3)N(c3ccc(C)cc3)C2=O)ccc1O [Compound 12],35

# Same assay, conditions: Table 4
row,Compound,CB1 receptor binding (%) at 10 µM [%]
1,CCOc1cc(/C=C2\S/C(=N\c3ccc(F)cc3)N(c3ccc(F)cc3)C2=O)ccc1O [Compound 2],33
2,CN(C)c1ccc(/C=C2\S/C(=N\c3ccccc3)N(C3CCCCC3)C2=O)cc1 [ETI-T-385],40
3,CCCN1C(=O)/C(=C/c2ccc3c(c2)OCO3)S/C1=N\c1ccc(OC)cc1 [ETI-T-426],60
4,C=CCc1cc(/C=C2\S/C(=N\c3ccc(C(=O)OC)cc3)N(C)C2=O)cc(OCC)c1O [Compound 16],15
5,Cc1ccc(/N=C2\S/C(=C\c3ccc(O)c(Cl)c3)C(=O)N2c2ccc(C)c(Cl)c2)cc1Cl [Compound 21],45
6,Cc1ccc(/N=C2\S/C(=C\c3ccc(O)cc3)C(=O)N2c2ccc(C)cc2)cc1 [Compound 1],33
7,CCCCN1C(=O)/C(=C/c2cc(Br)c(O)c(OCC)c2)S/C1=N\c1ccccc1 [ETI-T-401],42
8,C/C=C/c1cc(/C=C2\S/C(=N\c3ccccc3)N(CCOC)C2=O)cc(OCC)c1O [Compound 22],34
9,C=CCc1cc(/C=C2/S/C(=N/c3ccc(C)cc3)N(C)C2=O)cc(OCC)c1O [ETI-T-399],41
10,CCOc1cc(/C=C2\S/C(=N\c3ccc(C)cc3)N(c3ccc(C)cc3)C2=O)ccc1O [Compound 12],35
11,CCCN1C(=O)/C(=C/c2ccc(N(C)C)cc2)S/C1=N\c1ccccc1 [Compound 10],29

# Target: FAAH (Homo sapiens (Human), UniProt O00519)
# Sequence (O00519 whole entry): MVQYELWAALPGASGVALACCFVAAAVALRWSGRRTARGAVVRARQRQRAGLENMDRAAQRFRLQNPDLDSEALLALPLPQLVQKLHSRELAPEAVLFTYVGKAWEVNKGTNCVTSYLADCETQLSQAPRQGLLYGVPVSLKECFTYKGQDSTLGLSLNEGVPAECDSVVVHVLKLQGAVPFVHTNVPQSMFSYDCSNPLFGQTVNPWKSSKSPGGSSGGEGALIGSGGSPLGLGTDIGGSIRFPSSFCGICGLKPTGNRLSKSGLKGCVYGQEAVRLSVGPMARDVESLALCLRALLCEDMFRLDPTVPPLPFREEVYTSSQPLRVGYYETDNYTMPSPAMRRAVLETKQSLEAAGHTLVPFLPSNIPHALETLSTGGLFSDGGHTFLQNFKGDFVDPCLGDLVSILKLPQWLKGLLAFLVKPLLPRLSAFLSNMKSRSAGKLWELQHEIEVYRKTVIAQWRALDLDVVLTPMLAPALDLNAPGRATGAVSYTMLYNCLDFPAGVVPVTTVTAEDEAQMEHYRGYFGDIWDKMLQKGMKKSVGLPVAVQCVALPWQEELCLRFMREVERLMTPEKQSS
# Test: FAAH activity: hydrolysis of [3H]-AEA in U937 cell homogenates
# Format: biochemical
# Settings: not given
# Description: Hydrolysis of [^3H]-AEA by FAAH was determined as previously described in cell homogenates of U937 cells (0.18 mg protein) (Omeir et al., 1999, Biochem Biophys Res Commun, 264, 316-20; Mor et al., 2004, J Med Chem, 47, 4998-5008). Protein amounts of cell homogenates corresponded to 0.5×10^6 cells (U937), to assure best possible comparability of IC50 values as used for the AEA cellular uptake assays. URB597 was used as positive control. Protein quantification was performed using a BCA assay (Thermo Scientific). Enzyme activity was assessed by addition of vehicle or compounds in 10 μL DMSO to 490 μL homogenate in 10 mM Tris HCl, 1 mM EDTA, 0.1% (w/v) BSA fatty acid free, pH=8 and incubation for 15 min at 37° C. After, a mixture of AEA plus [ethanolamine-1-^3H]-AEA (0.5 nM) at final 100 nM was added to the homogenates and incubated for 15 min at 37° C. The reaction was stopped by addition of 1 mL ice-cold CHCl3:MeOH (1:1) followed by vigorous vortexing. Phase separation was achieved by centrifugation at 10′000×g at 4° C. for 10 min. Radioactivity of the separated aqueous phase (upper phase) containing [^3H-ethanolamine] or [^3H-glycerol] was measured by liquid scintillation counting on a Tri-Carb 2100 TR liquid scintillation analyzer after addition of 3.5 mL Ultima Gold scintillation cocktail (PerkinElmer Life Sciences). Results are expressed as hydrolysis of tritium substrate in percent of vehicle treated control. IC50 values were calculated by GraphPad®. Data are reported as means of n=3 independent experiments performed in triplicates.
# (§1) Statistical analysis and IC50 values were determined using GraphPad® Prism 5.0 (GraphPad® Software, San Diego, Calif., US). Inhibition curves were obtained by non-linear regression using the built-in log(inhibitor) vs. response-variable slope (four parameters) function. Results were calculated as % of vehicle control of the corresponding fraction (cells, aqueous phase) if not mentioned else. In vivo results are shown in absolute values and were analyzed by a one-way ANOVA following a Tukey's multiple comparison test or student's t-test. If not indicated else the results were compared vs. vehicle (CTRL). *** P<0.001, ** P<0.01, * P<0.05, ns=not significant P>0.05.
row,Compound,FAAH inhibition (in words)
1,CCOc1cc(/C=C2\S/C(=N\c3ccc(F)cc3)N(c3ccc(F)cc3)C2=O)ccc1O [Compound 2],Lack of FAAH inhibition

# Same assay, conditions: Table 2; U937 cell homogenate; read-out: FAAH inhibition IC50
row,Compound,IC50 [nM]
1,CCOc1cc(/C=C2\S/C(=N\c3ccc(F)cc3)N(c3ccc(F)cc3)C2=O)ccc1O [Compound 2],56200
2,C=CCc1cc(/C=C2\S/C(=N\c3ccc(C(=O)OC)cc3)N(C)C2=O)cc(OCC)c1O [Compound 16],> 100000
3,CCOc1cc(/C=C2\S/C(=N\c3ccc(C)cc3)N(c3ccc(C)cc3)C2=O)ccc1O [Compound 12],> 100000

# Same assay, conditions: Table 4; U937 cell homogenate; read-out: FAAH inhibition IC50
row,Compound,IC50 [nM]
1,CCOc1cc(/C=C2\S/C(=N\c3ccc(F)cc3)N(c3ccc(F)cc3)C2=O)ccc1O [Compound 2],56200
2,CN(C)c1ccc(/C=C2\S/C(=N\c3ccccc3)N(C3CCCCC3)C2=O)cc1 [ETI-T-385],985
3,Cc1ccc(/N=C2\S/C(=C\c3ccc(O)c(Cl)c3)C(=O)N2c2ccc(C)c(Cl)c2)cc1Cl [Compound 21],58900
4,C/C=C/c1cc(/C=C2\S/C(=N\c3ccccc3)N(CCOC)C2=O)cc(OCC)c1O [Compound 22],> 100000
5,COc1cc(/C=C2\S/C(=N\c3ccc(C)cc3)N(c3ccc(C)cc3)C2=O)ccc1O [ETI-T-008 Jspg],5370
6,CCCN1C(=O)/C(=C/c2ccc(N(C)C)cc2)S/C1=N\c1ccccc1 [Compound 10],1050

# System: AEA cellular uptake, U937 cells
# Test: [3H]-AEA cellular uptake inhibition in U937 cells
# Format: cell-based
# Settings: Homo sapiens, U-937; Table 1; U937 cells, 100 nM AEA; read-out: AEA uptake inhibition IC50
# Description: [^3H]-AEA Cellular Uptake
# Screening for AEA cellular uptake inhibition was performed in a semi-automated procedure: Pipetting and washing steps were performed by a Biomek3000 laboratory workstation. First, required amounts of U937 cells were centrifuged at 100×g for 5 min and resuspended in RPMI (37° C.) to a final concentration of 2×10^6 cells/mL. Then, 250 μL of cell suspension (0.5×10^6 cells per sample) were transferred into AquaSil™ silanized glass vials (Chromacol 1.1-MTV) in 96-well format. After addition of 5 μL vehicle (DMSO) or compounds the cells were incubated at 37° C. for 15 min. As positive controls OMDM-2 and UCM707 were used at 10 μM in each run. The ETI-T compounds were measured at up to 7 concentrations in triplicates from 100 pM-100 μM. After pre-incubation, a mixture of 0.5 nM[ethanolamine-1-^3H]-AEA, (60 Ci/mmol) and 99.5 nM of cold AEA (final 100 nM) was added and samples were incubated at 37° C. for another 15 min. The reaction was stopped by rapid filtration over UniFilter-96 GF/C filters (PerkinElmer) pre-soaked with PBS 0.25% BSA. Cells were washed three times with 100 μL ice-cold PBS buffer containing 1% fatty acid free BSA. After drying, 45 μL MicroScint 20 scintillation cocktail (PerkinElmer, Waltham, Mass., US) was added to the wells and the plate was sealed. Radioactivity was measured by liquid scintillation counting on a PerkinElmer Wallac Trilux MicroBeta 1450 during 2 min. Non-specific binding of [^3H]AEA (100 nM) to the glass vials was never higher than 10%. IC50 values were calculated by GraphPad® by non-linear regression using the built-in log(inhibitor) vs. response-variable slope (four parameters) function.
# as §1
row,Compound,IC50 [nM]
1,COc1ccc(/C=C2\S/C(=N\c3ccc(C)cc3)N(c3ccc(C)cc3)C2=O)cc1 [Compound 19],602
2,CCOc1cc(/C=C2\S/C(=N\c3ccc(F)cc3)N(c3ccc(F)cc3)C2=O)ccc1O [Compound 2],74
3,C=CCc1cc(/C=C2\S/C(=N\c3ccc(C(=O)OC)cc3)N(C)C2=O)cc(OCC)c1O [Compound 16],571
4,C=CCCc1cc(/C=C2\SC(=NCC)N(CC)C2=O)cc(OCC)c1O [Compound 4],145
5,Cc1ccc(/N=C2\S/C(=C\c3ccc(O)c(Cl)c3)C(=O)N2c2ccc(C)c(Cl)c2)cc1Cl [Compound 21],798
6,COc1ccc(/N=C2\S/C(=C\c3ccc(O)cc3)C(=O)N2c2ccc(OC)cc2)cc1 [Compound 18],597
7,Cc1ccc(/N=C2\S/C(=C\c3ccc(O)cc3)C(=O)N2c2ccc(C)cc2)cc1 [Compound 1],68
8,C/C=C/c1cc(/C=C2\S/C(=N\c3ccccc3)N(CCOC)C2=O)cc(OCC)c1O [Compound 22],899
9,CCOc1cc(/C=C2\S/C(=N\c3ccc(C)cc3)N(c3ccc(C)cc3)C2=O)ccc1O [Compound 12],484
10,CCCN1C(=O)/C(=C/c2ccc(N(C)C)cc2)S/C1=N\c1ccccc1 [Compound 10],355

# Same assay, conditions: Homo sapiens, U-937; Table 4; U937 cells; read-out: AEA uptake IC50
row,Compound,IC50 [nM]
1,COc1ccc(/C=C2\S/C(=N\c3ccc(C)cc3)N(c3ccc(C)cc3)C2=O)cc1 [Compound 19],602
2,CCOc1cc(/C=C2\S/C(=N\c3ccc(F)cc3)N(c3ccc(F)cc3)C2=O)ccc1O [Compound 2],74
3,CN(C)c1ccc(/C=C2\S/C(=N\c3ccccc3)N(C3CCCCC3)C2=O)cc1 [ETI-T-385],1080
4,CCCN1C(=O)/C(=C/c2ccc3c(c2)OCO3)S/C1=N\c1ccc(OC)cc1 [ETI-T-426],1460
5,C=CCc1cc(/C=C2\S/C(=N\c3ccc(C(=O)OC)cc3)N(C)C2=O)cc(OCC)c1O [Compound 16],571
6,C=CCCc1cc(/C=C2\SC(=NCC)N(CC)C2=O)cc(OCC)c1O [Compound 4],145
7,Cc1ccc(/N=C2\S/C(=C\c3ccc(O)c(Cl)c3)C(=O)N2c2ccc(C)c(Cl)c2)cc1Cl [Compound 21],798
8,COc1ccc(/N=C2\S/C(=C\c3ccc(O)cc3)C(=O)N2c2ccc(OC)cc2)cc1 [Compound 18],597
9,Cc1ccc(/N=C2\S/C(=C\c3ccc(O)cc3)C(=O)N2c2ccc(C)cc2)cc1 [Compound 1],68
10,CCCCN1C(=O)/C(=C/c2cc(Br)c(O)c(OCC)c2)S/C1=N\c1ccccc1 [ETI-T-401],1580
11,C/C=C/c1cc(/C=C2\S/C(=N\c3ccccc3)N(CCOC)C2=O)cc(OCC)c1O [Compound 22],899
12,C=CCc1cc(/C=C2/S/C(=N/c3ccc(C)cc3)N(C)C2=O)cc(OCC)c1O [ETI-T-399],1320
13,COc1cc(/C=C2\S/C(=N\c3ccc(C)cc3)N(c3ccc(C)cc3)C2=O)ccc1O [ETI-T-008 Jspg],1250
14,CCOc1cc(/C=C2\S/C(=N\c3ccc(C)cc3)N(c3ccc(C)cc3)C2=O)ccc1O [Compound 12],484
15,CCCN1C(=O)/C(=C/c2ccc(N(C)C)cc2)S/C1=N\c1ccccc1 [Compound 10],355

# Same assay, conditions: ratio of FAAH IC50 to AEA uptake IC50
row,Compound,apparent selectivity for AEA uptake inhibition over FAAH inhibition [fold]
1,CCOc1cc(/C=C2\S/C(=N\c3ccc(F)cc3)N(c3ccc(F)cc3)C2=O)ccc1O [Compound 2],~760
